Experimental data as given in patent publication US9981928B2, “Aryl sulfide derivatives and aryl sulfoxide derivatives as acaricides and insecticides” (BAYER CROPSCIENCE AKTIENGESELLSCHAFT, priority 2013, dated 2018).

Key:
[1] = tested on: green peach aphid (Myzus persicae); assay: Myzus persicae spray test (MYZUPE); format: in vivo; conditions: Chinese cabbage leaf disks; application rate 500 g/ha; after 6 days
Protocol: Myzus persicae—Spray Test (MYZUPE)
Solvent: 78 parts by weight of acetone
(§1) • 1.5 parts by weight of dimethylformamide Emulsifier: alkylaryl polyglycol ether
(§2) To produce a suitable preparation of active compound, 1 part by weight of active compound is dissolved using the stated parts by weight of solvent and made up with water containing an emulsifier concentration of 1000 ppm until the desired concentration is attained. To produce further test concentrations, the preparation is diluted with emulsifier-containing water.
Disks of Chinese cabbage leaves (Brassica pekinensis) infested by all stages of the green peach aphid (Myzus persicae) are sprayed with an active compound preparation of the desired concentration.
After 6 days, the efficacy in % is determined. 100% means that all the aphids have been killed; 0% means that none of the aphids have been killed.

[2] = log P determination by HPLC on reversed-phase columns (C 18), analogously to OECD Guideline 117; format: physicochemical; conditions: HPLC reversed-phase C 18; for logP (HCOOH): LC-MS in the acidic range, pH 2.7, 0.1% aqueous formic acid / acetonitrile; for logP (neutral): LC-MS in the neutral range, pH 7.8, 0.001 molar aqueous ammonium hydrogencarbonate / acetonitrile
Method in brief: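 Reversed-phase C18 HPLC per OECD 117 with LC-MS detection and a linear 10→95% acetonitrile gradient. Acidic log P run at pH 2.7 with 0.1% formic acid in both eluents. Neutral log P run at pH 7.8 with 0.001 M aqueous ammonium hydrogencarbonate.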

Amblyomma hebraeum = Amblyomma hebraeum test (AMBYHE), tick nymph immersion; format: in vivo; conditions: tick nymphs immersed for one minute; application rate 100 ppm; after 42 days
Protocol: Amblyomma hebaraeum Test (AMBYHE)
(§3) Solvent: dimethyl sulfoxide
To produce a suitable preparation of active compound, 10 mg of active compound are mixed with 0.5 ml of dimethyl sulfoxide, and the concentrate is diluted with water to the desired concentration.
Tick nymphs (Amblyomma hebraeum) are placed into perforated plastic beakers and immersed in the desired concentration for one minute. The ticks are transferred on filter paper into a Petri dish and stored in a climate-controlled cabinet.
After 42 days, the kill in % is determined. 100% means that all of the ticks have been killed; 0% means that none of the ticks have been killed.

[3] = tested on: cattle ticks (Boophilus microplus) Parkhurst strain, SP-resistant; assay: Boophilus microplus dip test (BOOPMI Dip); format: in vivo; conditions: engorged adult female ticks dipped; application rate 100 ppm; assessed after 7 days
Protocol: Boophilus microplus—Dip Test (BOOPMI Dip)
Test animals: cattle ticks (Boophilus microplus) Parkhurst strain, SP-resistant
as §3
10 mg of active compound are dissolved in 0.5 ml of dimethyl sulfoxide. To produce a suitable formulation, the active compound solution is diluted with water to the concentration desired in each case.
This active compound preparation is pipetted into tubes. 8-10 engorged adult female cattle ticks (Boophilus microplus) are transferred into a further tube with holes. The tube is immersed into the active compound preparation, and all the ticks are completely wetted. After the liquid has run out, the ticks are transferred on filter disks into plastic dishes and stored in a climate-controlled room.
(§4) Efficacy is assessed after 7 days by laying of fertile eggs. Eggs which are not visibly fertile are stored in a climate-controlled cabinet until the larvae hatch after about 42 days. An efficacy of 100% means that none of the ticks has laid any fertile eggs; 0% means that all the eggs are fertile.

[4] = tested on: greenhouse red spider mite (Tetranychus urticae); assay: Tetranychus urticae spray test, OP-resistant (TETRUR), bean leaf disks; format: in vivo; conditions: bean leaf disks; application rate 500 g/ha; after 6 days
Method in brief: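 Efficacy (% mites killed) read 6 days after spraying infested Phaseolus vulgaris leaf disks. Compound preparation: acetone and dimethylformamide solvent, made up in water with 1000 ppm alkylaryl polyglycol ether emulsifier; OP-resistant mite strain, all life stages.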

[5] = tested on: cattle ticks (Boophilus microplus); assay: Boophilus microplus injection test (BOOPMI inj); format: in vivo; conditions: injection into the abdomen; application rate 20 μg/animal; assessed after 7 days
Protocol: Boophilus microplus—Injection Test (BOOPMI inj)
as §3
To produce a suitable preparation of active compound, 10 mg of active compound are mixed with 0.5 ml of solvent and the concentrate is diluted with solvent to the desired concentration.
1 μl of the active compound solution is injected into the abdomen of 5 engorged adult female cattle ticks (Boophilus microplus). The animals are transferred into dishes and kept in a climate-controlled room.
as §4

[6] = tested on: caterpillars of the armyworm (Spodoptera frugiperda); assay: Spodoptera frugiperda spray test (SPODFR); format: in vivo; conditions: maize leaf disks; application rate 500 g/ha; after 7 days
Protocol: Spodoptera frugiperda—Spray Test (SPODFR)
(§5) Solvent: 78.0 parts by weight of acetone
as §1, §2
Leaf disks of maize (Zea mays) are sprayed with an active compound preparation of the desired concentration and, after drying, populated with caterpillars of the armyworm (Spodoptera frugiperda).
After 7 days, the efficacy in % is determined. 100% means that all the caterpillars have been killed; 0% means that no caterpillars have been killed.

[7] = tested on: larvae of the mustard beetle (Phaedon cochleariae); assay: Phaedon cochleariae spray test (PHAECO); format: in vivo; conditions: Chinese cabbage leaf disks; application rate 500 g/ha; after 7 days
Protocol: Phaedon cochleariae—Spray Test (PHAECO)
as §5, §1, §2
After 7 days, the efficacy in % is determined. 100% means that all the beetle larvae have been killed; 0% means that no beetle larvae have been killed.

| Structure (SMILES) | efficacy in % [1] [%] | logP (HCOOH) [2] | kill in % (Amblyomma hebraeum) [%] | efficacy (laying of fertile eggs) [3] [%] | efficacy in % [4] [%] | efficacy (laying of fertile eggs) [5] [%] | logP (neutral) [2] | efficacy in % [6] [%] | efficacy in % [7] [%] |
| --- | --- | --- | --- | --- | --- | --- | --- | --- | --- |
| Cc1cc(F)c(N2C(=O)OC(C)C2=O)cc1[S+]([O-])CC(F)(F)F (stereo not shown) [Example 206] | 100 | 2.08 | – | – | – | – | – | – | – |
| Cc1cc(F)c(-n2c(=O)n(C(C)C)c(=O)n2C)cc1SCC(F)(F)F [Example 91] | – | 3.35 | 100 | 100 | 100 | 100 | 3.28 | – | – |
| Cc1cc(F)c(N2C(=O)CN(C)C2=O)cc1SCC(F)(F)F [Example 200] | – | 2.42 | – | – | 90 | – | 2.33 | 100 | 100 |
| Cc1ccc(-n2c(=O)n(C(C)C)c(=O)n2C)cc1[S+]([O-])CC(F)(F)F (stereo not shown) [Example 141] | 100 | 2.27 | – | 90 | 90 | 100 | 2.24 | – | – |
